Results reported in patent publication US6939561B2, “Methods and compositions for polyene antibiotics with reduced toxicity” (Wisconsin Alumni Research Foundation, priority 2001, dated 2005).

Assays:
Candida albicans = assay: Minimal inhibitory concentration (MIC) of AmB, microwell dilution; type: cell-based; conditions: 35° C., 24 hr
Experimental: (§1) AmB in PEO-b-PHSA micelles was dissolved in isotonic sodium chloride solution giving an AmB level of 200 μg/ml. AmB was dissolved in DMSO and diluted further with the isotonic sodium chloride solution to give the same concentration. The level of DMSO in the final solution was <1% v/v. Samples of PEO-b-PHSA micelles in sodium chloride solution were also used as controls. Solutions of 20 μl from these samples were diluted with the culture medium (RPMI 1640) (80 μl) in the first microwell. The next 11 microwells had serial two-fold diluted solutions. To each microwell, 100 μl of the inoculum containing 5×10^3 CFU/ml of fungal pathogen (Candida albicans, Aspergillus fumigatus or Cryptococcus neoformans) in culture medium was added, giving a total volume of 200 μl per well. Microwell containers were incubated at 35° C. for 24 hr. Organism and medium controls were performed simultaneously to check the growth of organisms and sterility of culture medium, respectively. […] All tests were repeated three times.

Aspergillus fumigatus = assay: as above; type: cell-based; conditions: 35° C., 24 hr
Experimental: as §1

Cryptococcus neoformans = assay: as above; type: cell-based; conditions: 35° C., 24 hr
Experimental: as §1

[1] = UV/VIS spectroscopy, I/IV ratio (self-aggregation state of AmB); type: physicochemical; conditions: intensity at 348 nm to 409 nm, 4 μg/ml AmB, PBS pH 7.4
Experimental: Freeze-dried samples of AmB in PEO-b-PHSA micelles with 11 and 70% stearate substitution were dissolved in PBS, pH=7.4, at 4 μg/ml of AmB. DMSO was used to solubilize AmB in PBS, pH=7.4, at a similar concentration. The level of DMSO in the final sample was <1% (v/v). The UV/VIS spectra of AmB in different samples were recorded from 300 nm to 450 nm.

human red blood cells = assay: Hemolytic activity of AmB toward human red blood cells; type: cell-based; conditions: human RBCs, 37° C., 30 min
Experimental: Human blood was collected and centrifuged (2000 rpm). The supernatant and buffy coat were pipetted off and the red blood cells (RBCs) were diluted with an isotonic phosphate buffer, pH 7.4. The proper dilution factor was estimated from the UV/VIS absorbance of hemoglobin at 576 nm in the supernatant after RBCs were lysed by 20 μg/ml of AmB. A properly diluted sample of RBCs gives an absorbance of 0.4-0.5. Solutions of diluted RBCs (2.5 ml) with varied levels of AmB in different samples were incubated at 37° C. for 30 min. Samples were then placed in ice to stop hemolysis. The unlysed RBCs were removed by centrifugation at 14,000 rpm (about 7000×g) for 20 sec. The supernatant was collected and analyzed for hemoglobin by UV/VIS spectroscopy at 576 nm. The percent of hemolyzed RBCs was determined using this equation: % hemolysis=100(Abs−Abso)/(Abs100−Abso), where Abs, Abso and Abs100 are the absorbance for the sample, control with no AmB and control in the presence of 20 μg/ml AmB, respectively.

C[C@@H]1[C@H](O)[C@@H](C)/C=C/C=C/C=C/C=C/C=C/C=C/C=C/[C@H](O[C@@H]2O[C@H](C)[C@@H](O)[C@H](N)[C@@H]2O)C[C@@H]2O[C@](O)(C[C@@H](O)C[C@@H](O)[C@H](O)CC[C@@H](O)C[C@@H](O)CC(=O)O[C@H]1C)C[C@H](O)[C@H]2C(=O)O [AmB, Amphotericin B]
MIC, AmB level inhibiting growth of C. albicans (Candida albicans): 0.3 µg/mL | MIC, AmB level inhibiting growth of A. fumigatus (Aspergillus fumigatus): 0.45 µg/mL | MIC, AmB level inhibiting growth of C. neoformans (Cryptococcus neoformans): 0.3 µg/mL | I/IV ratio [1]: about 1.2 | AmB level causing 100% hemolysis (human red blood cells): about 1 μg/ml
